Series [1] concerns HBV (HepG2.117 cell line, inducibly HBV producing). Put plainly: Anti-HBV activity: intracellular HBV DNA by real-time PCR in HepG2.117 cells after 3 days of treatment. The class given is cell-based, hepatitis B virus. In a few lines: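 Antiviral effect is expressed through intracellular HBV DNA levels, determined by real-time PCR with a virus-specific probe. These levels were measured after 3 days of treatment with compound dilutions, in HepG2.117 cells induced to replicate HBV.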
(In general: Quantitative PCR measures a nucleic acid by following its amplification.)

The nature of the next series: in vitro. The settings on record: human, HepG2 or HepG2.117 cells, ATPlite, mean value. Format: cell-based. In a few lines:
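Luminescent ATP quantitation served as the viability endpoint following a 3- or 4-day incubation with test compounds.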

Where [2] appears, read: Hepatitis B virus, HepG2.117, 72 h, HepG2.117 cells, 3 days of treatment, intracellular HBV DNA by real-time PCR; mean value; read-out: EC50 (μM, mean value).
Setting [3] is: 3-days incubation (unmarked values).
Where [4] appears, read: Hepatitis B virus, HepG2.117, 72 h, HepG2.117 cells, intracellular HBV DNA by real-time PCR, 3 days of treatment, mean value; read-out: EC50 (μM, mean value).
The mark [5] stands for this setting: 3-days incubation (not marked with *).

Read-outs that look alike come from different tables or passages of the source. Some results are limits rather than exact numbers.

What is called EC50 is the concentration giving half of the maximal effect. Broadly, the CC50 is the concentration at which the toxic effect on the cells reaches its halfway point. Higher therefore signals better tolerance by the cells. Turning to `CC(C)Nc1nc2c(c(=O)n1-c1ccc(S(C)(=O)=O)cc1)CCN(C(=O)c1cc(Cl)c(Cl)s1)C2` [Compound C181, 7-(4,5-dichlorothiophene-2-carbonyl)-3-[4-(methanesulfonyl)phenyl]-2-[(propan-2-yl)amino]-5,6,7,8-tetrahydropyrido[3,4-d]pyrimidin-4(3H)-one], in series [1] (setting [2]), the EC50 turned out to be 2.56 µM. The CC50 at 3 days in the series “in vitro” (setting [3]) is above 50 µM.

Take `Cc1cc(-c2ccc(-n3c(NC(C)C)nc4c(c3=O)C[C@@H](C)N(C(=O)c3ccc(Cl)c(Cl)c3)C4)cc2)n[nH]1` [Compound C243, (6R)-7-(3,4-dichlorobenzoyl)-6-methyl-3-[4-(5-methyl-1H-pyrazol-3-yl)phenyl]-2-[(propan-2-yl)amino]-5,6,7,8-tetrahydropyrido[3,4-d]pyrimidin-4(3H)-one]: in series [1] (setting [2]), the EC50 was 0.23 µM. The same compound returned a CC50 at 3 days in the series “in vitro” (setting [3]) of 28.7 µM.

As for `COc1ccc(CNc2nc3c(c(=O)n2-c2cccc4ocnc24)CCN(C(=O)c2ccc(Cl)c(Cl)c2)C3)cc1` [Compound C148, 3-(1,3-benzoxazol-4-yl)-7-(3,4-dichlorobenzoyl)-2-{[(4-methoxyphenyl)methyl]amino}-5,6,7,8-tetrahydropyrido[3,4-d]pyrimidin-4(3H)-one], the EC50 in series [1] (setting [2]) worked out at 1.48 µM. The CC50 at 3 days in “in vitro” (setting [3]) is above 38 µM.

In the case of `COc1ccc(CNc2nc3c(c(=O)n2C2CCOCC2)CCN(C(=O)c2ccc(Cl)c(Cl)c2)C3)cc1` [Compound C93, 7-(3,4-dichlorobenzoyl)-2-{[(4-methoxyphenyl)methyl]amino}-3-(oxan-4-yl)-5,6,7,8-tetrahydropyrido[3,4-d]pyrimidin-4(3H)-one], the EC50 in series [1] (setting [2]) worked out at 1.73 µM. In the series “in vitro” (setting [3]), this compound returned a CC50 at 3 days of 32 µM.

For `CNC(=O)c1ccc(-n2c(NCc3c[nH]nn3)nc3c(c2=O)C[C@@H](C)N(C(=O)c2ccc(Cl)c(Cl)c2)C3)cc1` [Compound C423], in series [1] (setting [4]), the EC50 was above 7.4 µM. For the same compound, the CC50 at 3 days in the series “in vitro” (setting [5]) is above 50 µM.

For `CNC(=O)c1ccc(-n2c(N[C@@H](C)c3cccc(OC)c3)nc3c(c2=O)C[C@@H](C)N(C(=O)c2ccc(Cl)c(Cl)c2)C3)cc1` (single isomer, unassigned) [Compound C394b], the EC50 in series [1] (setting [4]) is 0.15 µM. In the series “in vitro” (setting [5]), the CC50 at 3 days is 29 µM.

Turning to `CC(C)Nc1nc2c(c(=O)n1-c1ccc(S(C)(=O)=O)cc1)[C@@H](C)CN(C(=O)c1ccc(Cl)c(Cl)c1)C2` (single isomer, unassigned) [Compound C154A, (*R)-7-(3,4-dichlorobenzoyl)-2-(isopropylamino)-5-methyl-3-(4-(methylsulfonyl)phenyl)-5,6,7,8-tetrahydropyrido[3,4-d]pyrimidin-4(3H)-one], the EC50 in series [1] (setting [2]) was determined as 1.32 µM. The compound further registered a CC50 at 3 days in the series “in vitro” (setting [3]) above 50 µM.

As for `CNC(=O)c1ccc(-n2c(N[C@@H](C)c3ccc(S(C)(=O)=O)cc3)nc3c(c2=O)C[C@@H](C)N(C(=O)c2ccc(Cl)c(Cl)c2)C3)cc1` (single isomer, unassigned) [Compound C412b], in series [1] (setting [4]), the EC50 was above 10 µM. This compound also registered a CC50 at 3 days in the series “in vitro” (setting [5]) above 50 µM.

Consider `COc1ccc(CNc2nc3c(c(=O)n2-c2ccnn2C)CCN(C(=O)c2ccc(Cl)c(Cl)c2)C3)cc1` [Compound C108, 7-(3,4-dichlorobenzoyl)-2-{[(4-methoxyphenyl)methyl]amino}-3-(1-methyl-1H-pyrazol-5-yl)-5,6,7,8-tetrahydropyrido[3,4-d]pyrimidin-4(3H)-one], for which the EC50 in series [1] (setting [2]) was 1.87 µM. The CC50 at 3 days in “in vitro” (setting [3]) was 26.5 µM.

On to `CNC(=O)c1ccc(-n2c(NCc3ncnn3C)nc3c(c2=O)C[C@@H](C)N(C(=O)c2ccc(Cl)c(Cl)c2)C3)cc1` [Compound C561], for which the EC50 in series [1] (setting [4]) is above 25 µM. This compound registered a CC50 at 3 days in the series “in vitro” (setting [5]) above 50 µM.

`COc1ccccc1-n1c(NCc2ccc(S(C)(=O)=O)cc2)nc2c(c1=O)CCN(C(=O)c1ccc(Cl)c(Cl)c1)C2` [Compound C27, 7-(3,4-dichlorobenzoyl)-2-({[4-(methanesulfonyl)phenyl]methyl}amino)-3-(2-methoxyphenyl)-5,6,7,8-tetrahydropyrido[3,4-d]pyrimidin-4(3H)-one]: the 50% effective concentration (EC50) in series [1] (setting [2]) is 1.98 µM. For the same compound, the CC50 at 3 days in “in vitro” (setting [3]) was above 50 µM.

Turning to `CCOC(=O)c1ccc(-n2c(NCc3ccc(OC)cc3)nc3c(c2=O)CCN(C(=O)c2ccc(Cl)c(Cl)c2)C3)cc1` [Compound C121, ethyl 4-[7-(3,4-dichlorobenzoyl)-2-{[(4-methoxyphenyl)methyl]amino}-4-oxo-5,6,7,8-tetrahydropyrido[3,4-d]pyrimidin-3(4H)-yl]benzoate], in series [1] (setting [2]), the EC50 was determined as 1.55 µM. This compound showed a 50% cytotoxic concentration (CC50) at 3 days in “in vitro” (setting [3]) above 50 µM.

For the compound `CNC(=O)c1ccc(-n2c(NC(C)C)nc3c(c2=O)C[C@@H](C)N(C(=O)c2ccc(Cl)c(Cl)c2)C3)cc1` [Compound C157, 4-[(6R)-7-(3,4-dichlorobenzoyl)-6-methyl-4-oxo-2-[(propan-2-yl)amino]-5,6,7,8-tetrahydropyrido[3,4-d]pyrimidin-3(4H)-yl]-N-methylbenzamide], the EC50 in series [1] (setting [2]) is 0.04 µM. Moreover, in “in vitro” (setting [3]), the CC50 at 3 days was above 50 µM.

Regarding `COc1ccc(CNc2nc3c(c(=O)n2-c2ccc(S(C)(=O)=O)cc2)C[C@@H](c2ccc(F)cc2)N(C(=O)c2ccc(Cl)c(Cl)c2)C3)cc1` (single isomer, unassigned) [Compound C109A, (6*S)-7-(3,4-dichlorobenzoyl)-6-(4-fluorophenyl)-3-[4-(methanesulfonyl)phenyl]-2-{[(4-methoxyphenyl)methyl]amino}-5,6,7,8-tetrahydropyrido[3,4-d]pyrimidin-4(3H)-one], the EC50 in series [1] (setting [2]) is above 50 µM. In “in vitro” (setting [3]), this compound came in with a CC50 at 3 days above 50 µM.

Consider `COC(=O)[C@H]1CC[C@H](n2c(NC(C)C)nc3c(c2=O)C[C@@H](C)N(C(=O)c2ccc(Cl)c(Cl)c2)C3)CC1` [Compound C370], for which, in series [1] (setting [2]), the EC50 amounted to 0.85 µM. In addition, the CC50 at 3 days in the series “in vitro” (setting [3]) was above 50 µM.

On to `COc1ccccc1-n1c(SC)nc2c(c1=O)CCN(C(=O)c1ccc(Cl)c(Cl)c1)C2` [Compound C4, 7-(3,4-dichlorobenzoyl)-3-(2-methoxyphenyl)-2-(methylsulfanyl)-5,6,7,8-tetrahydropyrido[3,4-d]pyrimidin-4(3H)-one], for which, in series [1] (setting [2]), the concentration for a half-maximal effect (EC50) stood at 1.79 µM. Further, the midpoint of cytotoxicity in “in vitro” (4-days incubation (values marked with *)), the CC50 at 4 days, lay at 36.8 µM.

Turning to `COc1ccc(CNc2nc3c(c(=O)[nH]2)CC(c2ccc(F)cc2)N(C(=O)c2ccc(Cl)c(Cl)c2)C3)cc1` (stereo not drawn) [Compound C94, 7-(3,4-dichlorobenzoyl)-6-(4-fluorophenyl)-2-{[(4-methoxyphenyl)methyl]amino}-5,6,7,8-tetrahydropyrido[3,4-d]pyrimidin-4(3H)-one], in series [1] (setting [2]), the EC50 amounted to 0.77 µM. For the same compound, the CC50 at 3 days in the series “in vitro” (setting [3]) was above 50 µM.

In the case of `CNC(=O)c1ccc(-n2c(NC(C)C)nc3c(c2=O)C[C@@H](C)N(C(=O)c2ccc(Cl)c(C#N)c2)C3)cc1` [Compound C686], the EC50 in series [1] (setting [4]) turned out to be 0.2 µM. Also, the CC50 at 3 days in “in vitro” (setting [5]) is above 50 µM.

Consider `CNC(=O)c1ccc(-n2c(O[C@@H](C)C(C)C)nc3c(c2=O)C[C@@H](C)N(C(=O)c2ccc(Cl)c(Cl)c2)C3)cc1` [Compound C446], for which, in series [1] (setting [4]), the EC50 was 0.03 µM. This compound came in with a CC50 at 3 days in the series “in vitro” (setting [5]) of 27.6 µM.

Consider `CNC(=O)c1ccc(-n2c(NCc3nc(-c4ccccc4)n[nH]3)nc3c(c2=O)C[C@@H](C)N(C(=O)c2ccc(Cl)c(Cl)c2)C3)cc1` [Compound C486], for which the EC50 in series [1] (setting [4]) turned out to be 17.3 µM. The compound further came in with a CC50 at 3 days in “in vitro” (setting [5]) above 50 µM.

As to `COc1ccc(CNc2nc3c(c(=O)[nH]2)CCN(C(=O)c2ccc(Br)c(C#N)c2)C3)cc1` [Compound C105, 2-bromo-5-[2-{[(4-methoxyphenyl)methyl]amino}-4-oxo-4,5,6,8-tetrahydropyrido[3,4-d]pyrimidine-7(3H)-carbonyl]benzonitrile], in series [1] (setting [2]), the EC50 was 6.81 µM. This compound gave a CC50 at 3 days in the series “in vitro” (setting [3]) above 50 µM.

As to `CC(C)Nc1nc2c(c(=O)n1-c1ccc(-c3ccns3)cc1)C[C@@H](C)N(C(=O)c1ccc(Cl)c(Cl)c1)C2` [Compound C212, (6R)-7-(3,4-dichlorobenzoyl)-6-methyl-2-[(propan-2-yl)amino]-3-[4-(1,2-thiazol-5-yl)phenyl]-5,6,7,8-tetrahydropyrido[3,4-d]pyrimidin-4(3H)-one], the EC50 in series [1] (setting [2]) stood at 0.26 µM. The CC50 at 3 days in the series “in vitro” (setting [3]) is above 50 µM.

In the case of `CNC(=O)c1ccc(-n2c(N[C@@H]3CCO[C@H]3c3ccccc3)nc3c(c2=O)C[C@@H](C)N(C(=O)c2ccc(Cl)c(Cl)c2)C3)cc1` [Compound C466], in series [1] (setting [4]), the EC50 came to 1.43 µM. The compound further returned a CC50 at 3 days in the series “in vitro” (setting [5]) of 31.5 µM.

As for `CNC(=O)c1ccc(-n2c(N[C@H](CC3CC3)c3ccccc3)nc3c(c2=O)C[C@@H](C)N(C(=O)c2ccc(Cl)c(Cl)c2)C3)cc1` (single isomer, unassigned) [Compound C437a], the EC50 in series [1] (setting [4]) amounted to 0.16 µM. The compound also yielded a CC50 at 3 days in the series “in vitro” (setting [5]) of 24.6 µM.

Take `CNC(=O)c1ccc(-n2c(NC(C)C)nc3c(c2=O)C[C@@H](C)N(C(=O)c2ccc(C#N)c(Cl)c2)C3)cc1` [Compound C508]: the EC50 in series [1] (setting [4]) was 0.88 µM. The CC50 at 3 days in the series “in vitro” (setting [5]) was above 50 µM.

Take `CNC(=O)c1ccc([C@@H](C)Nc2nc3c(c(=O)n2-c2ccc(NC(C)=O)cc2)C[C@@H](C)N(C(=O)c2ccc(Cl)c(Cl)c2)C3)cc1` (single isomer, unassigned) [Compound C528a]: the EC50 in series [1] (setting [4]) is 3.38 µM. In the series “in vitro” (setting [5]), the CC50 at 3 days is above 50 µM.

For the compound `COc1ccccc1-n1c(N(C)C)nc2c(c1=O)CCN(C(=O)c1ccc(Cl)c(Cl)c1)C2` [Compound C46, 7-(3,4-dichlorobenzoyl)-2-(dimethylamino)-3-(2-methoxyphenyl)-5,6,7,8-tetrahydropyrido[3,4-d]pyrimidin-4(3H)-one], the concentration giving a half-maximal response (EC50) in series [1] (setting [2]) came out at 6.49 µM. The compound also registered a CC50 at 3 days in the series “in vitro” (setting [3]) above 50 µM.

(Values after patent US20230091047A1 (priority 2019, published 2023).)
